# Experimental data: article PMC3094704, “S-Petasin, the Main Sesquiterpene of Petasites formosanus, Inhibits Phosphodiesterase Activity and Suppresses Ovalbumin-Induced Airway Hyperresponsiveness” (Evidence-based Complementary and Alternative Medicine : eCAM, 2011)
# Tests used:
# [1] = tested on: high-affinity rolipram binding sites (HARBSs) of guinea pig brain cell membranes; assay: Displacement of [3H]-rolipram (PDE4H determination)
# Procedure: When the above-described guinea pigs were sacrificed, the whole brains were removed and homogenized with a glass/Teflon homogenizer (Glas-Col, Terre Haute, IN, USA) in 10 volumes of cold medium (pH 6.5) containing 20 mM Bis-Tris, 2 mM benzamidine, 2 mM EDTA, 50 mM sodium chloride, 0.1 mM PMSF and 1 mM dithiothreitol. At 4°C, the homogenate was centrifuged at 170 g for 5 min to remove connective tissues and blood vessels. The suspended homogenate was then re-centrifuged at 40 000 g for 30 min to separate the cytosolic and particulate portions. The particulate portion was re-suspended in a suspension at a concentration of 400 mg/mL (wet weight/volume), after washing three times with homogenizing buffer. The particulate portion mainly consisted of cell membranes. The binding ability of S-petasin (3–300 μM) or Ro 20-1724 (1–10,000 nM), a reference drug, to high-affinity rolipram binding sites (HARBSs) of the membranes was determined by replacing 2 nM [^3H]-rolipram in a reaction buffer at 30°C for 1 h, according to the method described by previous investigators and modified by us. Briefly, the reaction buffer consisted of 50 mM Tris-HCl and 5 mM MgCl2 (pH 7.5). The total volume of the reaction mixture was 25 μL, consisting of 10 μL of particulate suspension, 10 μL of [^3H]-rolipram and 5 μL of S-petasin or Ro 20-1724. After 1 h, the reaction was terminated by moving the reaction vessel into crushed ice. Then the reaction mixture was transferred onto Whatman GF/B glass-fiber filters, which were soaked in a 0.3% polyethyleneimine solution in a mini-funnel. The reaction mixture was filtered by centrifuging at 90 g for 10 s, and the filtrate was collected into a 1.5 mL Eppendorf tube with a top adapted to the outlet of the mini-funnel. The filters were washed with 300 μL of reaction buffer three times each in the same way, and transferred into 2 mL of cocktail for radiation counting (total binding) using a β-scintillation counter (Beckman, Fullerton, CA, USA). Non-specific binding, which was defined in the presence of 10 μM Ro 20-1724, was subtracted from the total binding to yield the specific binding. The effective concentration (EC50) values of S-petasin and Ro 20-1724, at which a half of [^3H]-rolipram bound onto HARBSs of cell membranes was displaced, were defined as the PDE4H values, and these were related to any adverse effects, such as nausea, vomiting and gastric hypersecretion.
# PDE1 = assay: Inhibition of PDE1 activity (two-step radioenzymatic assay); format: biochemical, guinea pig; conditions: mean ± SEM (n); read-out: IC50 on PDE isozyme 1
# Procedure: Activities of PDE1–5, partially separated from guinea pig lungs and hearts according to the method described by Ko et al., were measured with a two-step procedure according to the method of Thompson and Appleman, using cAMP with [^3H]-cAMP or cGMP with [^3H]-cGMP as substrates. The enzyme pμreparation (25 μL) was incubated for 30 min at 37°C in a total assay volume of […] containing 50 mM Tris-HCl (pH 7.4), 3 mM MgCl2, 1 mM dithiothreitol, 0.05% BSA, 1 μM cAMP with 0.2 μCi [^3H]-cAMP as a substrate alone or in the presence of 0.1 units calmodulin with 10 μM CaCl2 or 5 μM cGMP, and 1 μM cGMP with 0.2 μCi [^3H]-cGMP as another substrate alone or in the presence of 0.1 units calmodulin with 10 μM CaCl2. In tests of enzyme inhibition, the reaction mixture contained 10 μL of vehicle or inhibitors, at various concentrations of S-petasin or selective PDE1–5 inhibitors, such as vinpocetin [22], EHNA [23], milrinone, Ro 20-1724 [25] and zaprinast, as reference drugs. The reagents and homogenate were mixed on ice, and the reaction was initiated by transferring the mixture to a water bath at 37°C. Following a 30-min incubation, the reaction was stopped by transferring the reaction vessel to a bath of boiling water for 3 min. After cooling on ice, 20 μL of a 1 mg/mL solution of C. atrox snake venom was added to the reaction mixture, and the mixture was incubated at 37°C for 10 min. […]
# PDE4 = assay: Inhibition of PDE4 activity and Lineweaver-Burk analysis; format: biochemical, guinea pig
# Procedure: Activities of PDE1–5, partially separated from guinea pig lungs and hearts according to the method described by Ko et al., were measured with a two-step procedure according to the method of Thompson and Appleman, using cAMP with [^3H]-cAMP or cGMP with [^3H]-cGMP as substrates. The enzyme pμreparation (25 μL) was incubated for 30 min at 37°C in a total assay volume of […] containing 50 mM Tris-HCl (pH 7.4), 3 mM MgCl2, 1 mM dithiothreitol, 0.05% BSA, 1 μM cAMP with 0.2 μCi [^3H]-cAMP as a substrate alone or in the presence of 0.1 units calmodulin with 10 μM CaCl2 or 5 μM cGMP, and 1 μM cGMP with 0.2 μCi [^3H]-cGMP as another substrate alone or in the presence of 0.1 units calmodulin with 10 μM CaCl2. In tests of enzyme inhibition, the reaction mixture contained 10 μL of vehicle or inhibitors, at various concentrations of S-petasin or selective PDE1–5 inhibitors, such as vinpocetin [22], EHNA [23], milrinone, Ro 20-1724 [25] and zaprinast, as reference drugs. The reagents and homogenate were mixed on ice, and the reaction was initiated by transferring the mixture to a water bath at 37°C. Following a 30-min incubation, the reaction was stopped by transferring the reaction vessel to a bath of boiling water for 3 min. After cooling on ice, 20 μL of a 1 mg/mL solution of C. atrox snake venom was added to the reaction mixture, and the mixture was incubated at 37°C for 10 min. Unreacted [^3H]-cAMP or [^3H]-cGMP was removed by the addition of 500 μL of a 1-in-1 Tris-HCl (40 mM) buffer suspension of Dowex resin (1 × 8-200) with incubation on ice for 30 min. Each tube was then centrifuged for 2 min at 3700 g, and 150 μL of the supernatant was removed for liquid scintillation counting. Less than 10% of the tritiated cyclic nucleotide was hydrolyzed in this assay. The total protein in each fraction used was assayed according to the method described by Bradford. The PDE activities are shown as nmol/mg/min in the Lineweaver-Burk analysis.
# PDE5 = target: T1, PDE5 (Cavia porcellus, UniProt H0VD23); assay: Inhibition of PDE5 activity (two-step radioenzymatic assay); format: biochemical, guinea pig; conditions: mean ± SEM (n); read-out: IC50 on PDE isozyme 5
# T1 construct: partially separated from guinea pig lungs and hearts; from tissue; host or cells: guinea pig lungs and hearts
# Procedure: Activities of PDE1–5, partially separated from guinea pig lungs and hearts according to the method described by Ko et al., were measured with a two-step procedure according to the method of Thompson and Appleman, using cAMP with [^3H]-cAMP or cGMP with [^3H]-cGMP as substrates. The enzyme pμreparation (25 μL) was incubated for 30 min at 37°C in a total assay volume of […] containing 50 mM Tris-HCl (pH 7.4), 3 mM MgCl2, 1 mM dithiothreitol, 0.05% BSA, 1 μM cAMP with 0.2 μCi [^3H]-cAMP as a substrate alone or in the presence of 0.1 units calmodulin with 10 μM CaCl2 or 5 μM cGMP, and 1 μM cGMP with 0.2 μCi [^3H]-cGMP as another substrate alone or in the presence of 0.1 units calmodulin with 10 μM CaCl2. […] The reagents and homogenate were mixed on ice, and the reaction was initiated by transferring the mixture to a water bath at 37°C. Following a 30-min incubation, the reaction was stopped by transferring the reaction vessel to a bath of boiling water for 3 min. After cooling on ice, 20 μL of a 1 mg/mL solution of C. atrox snake venom was added to the reaction mixture, and the mixture was incubated at 37°C for 10 min. Unreacted [^3H]-cAMP or [^3H]-cGMP was removed by the addition of 500 μL of a 1-in-1 Tris-HCl (40 mM) buffer suspension of Dowex resin (1 × 8-200) with incubation on ice for 30 min. […]
structure (smiles),measurement,setting,value
C=C(C)[C@@H]1C[C@@]2(C)C(=CC1=O)CC[C@@H](OC(=O)/C=C\SC)[C@@H]2C [S-Petasin],EC50,[1]; HARBSs of guinea pig brain cell membranes,> 300 µM
same,percentage displacement of [3H]-rolipram binding,"[1]; at the highest concentration (300 μM), 2 nM [3H]-rolipram",28.0%±5.7%
same,IC50,PDE1,> 100 µM
same,Ki,"PDE4; Lineweaver-Burk analysis, cAMP substrate, read-out: Ki on PDE isozyme 4",18.1 ± 1.7 µM
same,Mode of inhibition of PDE4 activity,"PDE4; Lineweaver-Burk analysis, S-petasin 3–30 μM, Ro 20-1724 1–10 μM",competitively inhibited
same,IC50,"PDE4; mean ± SEM (n), read-out: IC50 on PDE isozyme 4 (taken as PDE4L value)",17.5 µM
same,IC50,PDE5,> 100 µM
